Reference: patent US20120122924A1, “NAMPT INHIBITORS” (ABBOTT LABORATORIES, priority 2010, published 2012)

molecular target: recombinant, human, C-terminally-His tagged NAMPT (Homo sapiens, UniProt P43490); test: Time-Resolved Fluorescence Resonance Energy Transfer (TR-FRET) binding assay of NAMPT; conditions: 6.8 nM NAMPT, 200 nM probe (Oregon Green 488-conjugated APO866), 1 nM Tb-anti-His antibody, 2-3 hours
Outline: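 Competition binding with 6.8 nM His-tagged NAMPT, 1 nM Tb-anti-His antibody and 200 nM Oregon Green 488-APO866 probe in HEPES pH 7.5 buffer with MgCl2 and DTT, 2–3 h. Excitation 337 nm; 520/492 nm emission ratio used for IC50.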

Chain of recombinant, human, C-terminally-His tagged NAMPT (P43490 whole entry): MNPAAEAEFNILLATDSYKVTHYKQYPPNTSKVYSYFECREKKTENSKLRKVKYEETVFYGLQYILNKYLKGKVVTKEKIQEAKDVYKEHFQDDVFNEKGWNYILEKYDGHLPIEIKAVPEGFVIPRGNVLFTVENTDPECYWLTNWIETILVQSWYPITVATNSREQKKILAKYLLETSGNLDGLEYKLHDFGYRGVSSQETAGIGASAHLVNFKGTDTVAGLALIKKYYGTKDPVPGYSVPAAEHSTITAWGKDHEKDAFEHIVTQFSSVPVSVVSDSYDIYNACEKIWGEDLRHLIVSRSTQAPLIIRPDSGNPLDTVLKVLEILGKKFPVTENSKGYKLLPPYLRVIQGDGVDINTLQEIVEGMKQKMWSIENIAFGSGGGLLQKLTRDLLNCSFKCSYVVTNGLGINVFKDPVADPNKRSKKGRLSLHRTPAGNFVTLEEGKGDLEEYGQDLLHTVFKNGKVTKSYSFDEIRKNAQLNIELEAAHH

First: CCCn1cc(-c2ccc(NC(=O)N3CCc4ccccc4C3)cc2)cn1 [Example 35, N-[4-(1-propyl-1H-pyrazol-4-yl)phenyl]-3,4-dihydroisoquinoline-2(1H)-carboxamide]
Second: O=C(Nc1ccc(-c2cnn(CCO)c2)cc1)N1CCc2ccccc2C1 [Example 41, N-{4-[1-(2-hydroxyethyl)-1H-pyrazol-4-yl]phenyl}-3,4-dihydroisoquinoline-2(1H)-carboxamide]
The IC50 of the first is 8-fold lower: 103 nM for the first, 819 nM for the second. The first is the more potent here.

O=C(Nc1ccc(NC(=O)N2CCc3ccccc3C2)cc1)c1ccccc1 [Example 80, N-[4-(benzoylamino)phenyl]-3,4-dihydroisoquinoline-2(1H)-carboxamide] and O=C(Nc1ccc(NC(=O)N2CCc3ccccc3C2)cc1)c1ccsc1 [Example 85, N-{4-[(3-thienylcarbonyl)amino]phenyl}-3,4-dihydroisoquinoline-2(1H)-carboxamide] are within 1.5-fold of each other in IC50: 191 nM for the first, 242 nM for the second.

Going from O=C(NCCc1ccccc1)c1ccc(NC(=O)N2CCc3ccccc3C2)cc1 [Example 15, N-{4-[(2-phenylethyl)carbamoyl]phenyl}-3,4-dihydroisoquinoline-2(1H)-carboxamide] to O=C(CCCc1ccccc1)Nc1ccc(NC(=O)N2CCc3ccccc3C2)cc1 [Example 32, N-{4-[(4-phenylbutanoyl)amino]phenyl}-3,4-dihydroisoquinoline-2(1H)-carboxamide], the IC50 falls from 97.6 nM to 12 nM (8.1-fold). The second is the more potent here.

Going from C[C@@H](O)Cn1cc(-c2ccc(NC(=O)N3CCc4ccccc4C3)cc2)cn1 [Example 36, N-{4-[1-((2R)-2-hydroxypropyl)-1H-pyrazol-4-yl]phenyl}-3,4-dihydroisoquinoline-2(1H)-carboxamide] to O=C(Nc1ccc(-c2cnn(Cc3ccccc3)c2)cc1)N1CCc2ccccc2C1 [Example 38, N-[4-(1-benzyl-1H-pyrazol-4-yl)phenyl]-3,4-dihydroisoquinoline-2(1H)-carboxamide], the IC50 rises from 185 nM to 391 nM (2.1-fold). The first is the more potent here.

O=C(Nc1ccc(NC(=O)N2CCc3ccccc3C2)cc1)c1ccn[nH]1 [Example 88, N-{4-[(1H-pyrazol-5-ylcarbonyl)amino]phenyl}-3,4-dihydroisoquinoline-2(1H)-carboxamide] and O=C(Nc1ccc(NC(=O)N2CCc3ccccc3C2)cc1)c1cncs1 [Example 87, N-{4-[(1,3-thiazol-5-ylcarbonyl)amino]phenyl}-3,4-dihydroisoquinoline-2(1H)-carboxamide] are within 1.5-fold of each other in IC50: 134 nM for the first, 116 nM for the second.

First: CCCc1nc(-c2ccc(NC(=O)N3CCc4ccccc4C3)cc2)no1 [Example 56, N-[4-(5-propyl-1,2,4-oxadiazol-3-yl)phenyl]-3,4-dihydroisoquinoline-2(1H)-carboxamide]
Second: CSCCC(=O)Nc1ccc(NC(=O)N2CCc3ccccc3C2)cc1 [Example 76, N-(4-{[3-(methylthio)propanoyl]amino}phenyl)-3,4-dihydroisoquinoline-2(1H)-carboxamide]
The IC50 of the first is 13-fold higher: 189 nM for the first, 14.8 nM for the second.

First: CCC(C)(C)C(=O)Nc1ccc(NC(=O)N2CCc3ccccc3C2)cc1 [Example 70, N-{4-[(2,2-dimethylbutanoyl)amino]phenyl}-3,4-dihydroisoquinoline-2(1H)-carboxamide]
Second: CCCCCCC(=O)Nc1ccc(NC(=O)N2CCc3ccccc3C2)cc1 [Example 72, N-[4-(heptanoylamino)phenyl]-3,4-dihydroisoquinoline-2(1H)-carboxamide]
The IC50 of the first is 6.5-fold higher: 109 nM for the first, 16.8 nM for the second. The second is the more potent here.

Going from CC(C)CCNC(=O)c1ccc(NC(=O)N2CCc3ccc(F)cc3C2)cc1 [Example 16, 7-fluoro-N-{4-[(3-methylbutyl)carbamoyl]phenyl}-3,4-dihydroisoquinoline-2(1H)-carboxamide] to CC(C)CCNC(=O)c1ccc(NC(=O)N2CCc3cc(F)ccc3C2)cc1 [Example 6, 6-fluoro-N-{4-[(3-methylbutyl)carbamoyl]phenyl}-3,4-dihydroisoquinoline-2(1H)-carboxamide], the IC50 falls from 171 nM to 10.3 nM (17-fold).

Compared with O=C(Nc1cnn(Cc2ccccc2)c1)c1ccc(NC(=O)N2CCc3ccccc3C2)cc1 [Example 14, N-{4-[(1-benzyl-1H-pyrazol-4-yl)carbamoyl]phenyl}-3,4-dihydroisoquinoline-2(1H)-carboxamide], O=C(CCS(=O)(=O)c1ccccc1)Nc1ccc(NC(=O)N2CCc3ccccc3C2)cc1 [Example 67, N-(4-{[3-(phenylsulfonyl)propanoyl]amino}phenyl)-3,4-dihydroisoquinoline-2(1H)-carboxamide] is 2.8-fold lower in IC50: 47.1 nM for the first, 16.7 nM for the second. The second is the more potent here.

Compared with COC1CCC(C(=O)Nc2ccc(NC(=O)N3CCc4ccccc4C3)cc2)CC1 (centres unmarked) [Example 64, N-(4-{[(4-methoxycyclohexyl)carbonyl]amino}phenyl)-3,4-dihydroisoquinoline-2(1H)-carboxamide], O=C(CC1CCCC1)Nc1ccc(NC(=O)N2CCc3ccccc3C2)cc1 [Example 77, N-{4-[(cyclopentylacetyl)amino]phenyl}-3,4-dihydroisoquinoline-2(1H)-carboxamide] is 11-fold lower in IC50: 55 nM for the first, 5.16 nM for the second. The second is the more potent here.

Compared with CC(C)CCN1CC=C(c2ccc(NC(=O)N3CCc4ccccc4C3)cc2)CC1 [Example 55, N-{4-[1-(3-methylbutyl)-1,2,3,6-tetrahydropyridin-4-yl]phenyl}-3,4-dihydroisoquinoline-2(1H)-carboxamide], CC(C)CC(=O)N1CC=C(c2ccc(NC(=O)N3CCc4ccccc4C3)cc2)CC1 [Example 47, N-{4-[1-(3-methylbutanoyl)-1,2,3,6-tetrahydropyridin-4-yl]phenyl}-3,4-dihydroisoquinoline-2(1H)-carboxamide] is 22-fold lower in IC50: 435 nM for the first, 20.2 nM for the second. The second is the more potent here.

First: O=C(Cc1ccc(NC(=O)N2CCc3ccccc3C2)cc1)NCCc1cccs1 [Example 26, N-[4-(2-oxo-2-{[2-(2-thienyl)ethyl]amino}ethyl)phenyl]-3,4-dihydroisoquinoline-2(1H)-carboxamide]
Second: O=C(NCCc1cccs1)c1ccc(NC(=O)N2CCc3cc(F)ccc3C2)cc1 [Example 13, 6-fluoro-N-(4-{[2-(2-thienyl)ethyl]carbamoyl}phenyl)-3,4-dihydroisoquinoline-2(1H)-carboxamide]
The IC50 of the first is 17-fold higher: 800 nM for the first, 45.8 nM for the second. The second is the more potent here.

Compared with CN1CCN(CCC(=O)Nc2ccc(NC(=O)N3CCc4ccccc4C3)cc2)CC1 [Example 96, N-(4-{[3-(4-methylpiperazin-1-yl)propanoyl]amino}phenyl)-3,4-dihydroisoquinoline-2(1H)-carboxamide], O=C(CN1CCOCC1)Nc1ccc(NC(=O)N2CCc3ccccc3C2)cc1 [Example 94, N-{4-[(morpholin-4-ylacetyl)amino]phenyl}-3,4-dihydroisoquinoline-2(1H)-carboxamide] is 1.8-fold lower in IC50: 128 nM for the first, 69.2 nM for the second.

Going from CNC(=O)N1CC=C(c2ccc(NC(=O)N3CCc4ccccc4C3)cc2)CC1 [Example 48, N-{4-[1-(methylcarbamoyl)-1,2,3,6-tetrahydropyridin-4-yl]phenyl}-3,4-dihydroisoquinoline-2(1H)-carboxamide] to O=C(Nc1ccc(C(=O)N2CCN(c3ccccn3)CC2)cc1)N1CCc2ccccc2C1 [Example 2, N-(4-{[4-(pyridin-2-yl)piperazin-1-yl]carbonyl}phenyl)-3,4-dihydroisoquinoline-2(1H)-carboxamide], the IC50 falls from 32.6 nM to 13.2 nM (2.5-fold). The second is the more potent here.

In the case of CC(C)CCNC(=O)c1ccc(NC(=O)N2CCc3ccccc3C2)cn1 [Example 18, N-{6-[(3-methylbutyl)carbamoyl]pyridin-3-yl}-3,4-dihydroisoquinoline-2(1H)-carboxamide], the IC50 is reported as 178 nM.
